Measured values published in article PMC4878759 (PLoS ONE, 2016).

Biological target: T1, ENaC (Homo sapiens, UniProt P37088+P51168+P51170)
T1 construct: endogenous in cells; host or cells: T84 cells, ENaC induced with 2 mM sodium butyrate for 2 days
T1 sequence (P37088 1-669): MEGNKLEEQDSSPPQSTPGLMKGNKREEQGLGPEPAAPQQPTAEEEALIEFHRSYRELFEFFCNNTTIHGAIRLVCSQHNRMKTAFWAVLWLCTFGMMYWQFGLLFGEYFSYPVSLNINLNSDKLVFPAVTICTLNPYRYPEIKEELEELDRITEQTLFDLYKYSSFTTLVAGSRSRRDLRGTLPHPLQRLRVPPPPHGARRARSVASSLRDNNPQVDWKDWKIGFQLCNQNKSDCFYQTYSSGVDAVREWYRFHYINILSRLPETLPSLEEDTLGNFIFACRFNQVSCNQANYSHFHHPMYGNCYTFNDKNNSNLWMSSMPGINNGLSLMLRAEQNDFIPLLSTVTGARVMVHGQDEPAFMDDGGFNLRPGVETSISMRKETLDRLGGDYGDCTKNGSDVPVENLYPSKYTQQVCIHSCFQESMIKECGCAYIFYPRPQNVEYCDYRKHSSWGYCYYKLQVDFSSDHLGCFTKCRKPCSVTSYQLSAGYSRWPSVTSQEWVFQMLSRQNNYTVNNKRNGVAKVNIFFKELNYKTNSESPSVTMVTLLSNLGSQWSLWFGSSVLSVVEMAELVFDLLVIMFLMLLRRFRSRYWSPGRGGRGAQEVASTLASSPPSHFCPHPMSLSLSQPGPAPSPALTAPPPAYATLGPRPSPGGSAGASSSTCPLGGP
T1 sequence (P51168 1-640): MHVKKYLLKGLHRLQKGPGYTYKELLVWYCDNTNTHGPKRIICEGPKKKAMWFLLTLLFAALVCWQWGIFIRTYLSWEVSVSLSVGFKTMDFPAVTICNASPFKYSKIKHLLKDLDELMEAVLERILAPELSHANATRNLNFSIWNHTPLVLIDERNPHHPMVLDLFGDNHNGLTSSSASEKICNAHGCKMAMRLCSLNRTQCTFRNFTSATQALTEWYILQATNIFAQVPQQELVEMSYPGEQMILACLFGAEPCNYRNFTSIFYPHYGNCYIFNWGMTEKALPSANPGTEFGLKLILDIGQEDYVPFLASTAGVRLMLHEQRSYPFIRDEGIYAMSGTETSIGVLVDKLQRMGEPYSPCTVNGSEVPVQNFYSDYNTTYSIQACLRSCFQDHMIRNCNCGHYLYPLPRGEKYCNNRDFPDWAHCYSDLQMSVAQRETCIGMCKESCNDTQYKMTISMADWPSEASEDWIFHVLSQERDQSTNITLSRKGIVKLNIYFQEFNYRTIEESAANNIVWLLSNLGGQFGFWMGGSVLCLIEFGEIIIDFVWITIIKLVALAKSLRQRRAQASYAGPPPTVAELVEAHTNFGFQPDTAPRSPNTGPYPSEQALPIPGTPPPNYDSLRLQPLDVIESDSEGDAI
T1 sequence (P51170 1-649): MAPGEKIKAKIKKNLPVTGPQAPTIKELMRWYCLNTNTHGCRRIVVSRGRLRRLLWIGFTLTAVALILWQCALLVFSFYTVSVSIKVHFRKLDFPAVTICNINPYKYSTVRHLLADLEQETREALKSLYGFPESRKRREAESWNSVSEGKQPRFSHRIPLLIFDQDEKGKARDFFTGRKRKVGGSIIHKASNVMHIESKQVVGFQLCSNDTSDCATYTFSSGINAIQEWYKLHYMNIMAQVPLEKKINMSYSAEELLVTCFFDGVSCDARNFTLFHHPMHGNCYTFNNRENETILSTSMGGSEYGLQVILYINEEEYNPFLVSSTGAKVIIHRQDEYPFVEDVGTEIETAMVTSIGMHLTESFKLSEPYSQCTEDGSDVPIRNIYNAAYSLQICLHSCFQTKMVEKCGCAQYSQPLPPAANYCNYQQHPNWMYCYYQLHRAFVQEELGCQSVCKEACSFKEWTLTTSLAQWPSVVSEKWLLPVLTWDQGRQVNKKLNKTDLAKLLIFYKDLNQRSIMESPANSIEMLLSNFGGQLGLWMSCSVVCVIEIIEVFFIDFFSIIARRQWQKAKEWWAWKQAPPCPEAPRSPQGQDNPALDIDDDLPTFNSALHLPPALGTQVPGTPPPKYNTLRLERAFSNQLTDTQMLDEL
Test: Short circuit current in T84 cells expressing ENaC
Assay type: cell-based
Conditions: up to 30 μM
Procedure: Snapwell inserts containing ANO1, ANO2 or CFTR expressing FRT cells, ENaC expressing T-84 cells or the human primary airway epithelial cells were mounted in Ussing chambers (Physiologic Instruments, San Diego, CA). To induce transcriptional ENaC induction, the polarized T84 cells were incubated with 2 mM sodium butyrate for 2 days. To increase the functional expression of ANO1, the human airway epithelial cells were treated with IL-4 (10 ng/mL) for 2 days. For T-84 and the human primary airway epithelial cells, the apical and basolateral bath were filled with HCO3^—buffered solution containing (in mM): 120 NaCl, 5 KCl, 1 MgCl2, 1 CaCl2, 10 D-glucose, 2.5 HEPES, and 25 NaHCO3 (pH 7.4). For FRT cells, the basolateral bath was filled with the HCO3^—buffered solution and the apical bath was filled with a half-Cl^- solution. In the half-Cl^- solution 65 mM NaCl in the HCO3^—buffered solution was replaced by Na-gluconate. […] ATP was applied to the apical bath solution to induce intracellular calcium increase. […] Apical membrane currents were measured with an EVC4000 Multi-Channel V/I Clamp (World Precision Instruments, Sarasota, FL) and PowerLab 4/35 (AD Instruments, Castle Hill, Australia). Data were analyzed using Labchart Pro 7 (AD Instruments). The sampling rate was 4 Hz.
ANO1 was activated by either 10 μM Eact, an ANO1 activator, or 100 μM ATP.

COc1ccccc1C=NNC(=O)COc1ccc(Cl)cc1C [Ani9, 2-(4-chloro-2-methylphenoxy)-N-[(2-methoxyphenyl)methylideneamino]-acetamide]
effect on ENaC channel activity: no effect
